In ChEMBL document CHEMBL6153079, “Discovery of noncovalent diaminopyrimidine-based Inhibitors for glioblastoma via a dual FAK/DNA targeting strategy” (Eur J Med Chem, 2025) one finds Activity data, which are given here for one compound.

The test deals with U-87 MG. Description: Induction of cell cycle arrest in human U-87 MG cells assessed as accumulation of cells at G2M phase at 2 uM by propidium Iodide staining based flow cytometry analysis (reference value: 9.73%). The format is functional, U-87MG ATCC. A general note: In flow cytometry, cells or beads pass a laser one at a time.

As to `CNC(=O)c1ccccc1Nc1nc(Nc2ccc(N3CCN(CCOC(=O)CCCc4ccc(N(CCCl)CCCl)cc4)CC3)cc2)ncc1C(F)(F)F`, the Activity came to 50.11%.
